PubChem BioAssay AID1259407 (Chemical Carcinogenesis Research Information System (CCRIS), 2018)
Active and inactive are the calls of the source. How the calls were made is not given here.

System: CCRIS mutagenicity, Ames/micronucleus/aberration tests
Assay: CCRIS mutagenicity studies
[1] = Test System: AMES SALMONELLA TYPHIMURIUM, Strain/Indicator: TA100, Metabolic Activation: RAT, LIVER, S-9, AROCLOR 1254, Method: PREINCUBATION
[2] = Test System: AMES SALMONELLA TYPHIMURIUM, Strain/Indicator: TA1535, Metabolic Activation: RAT, LIVER, S-9, AROCLOR 1254, Method: PREINCUBATION
[3] = Test System: AMES SALMONELLA TYPHIMURIUM, Strain/Indicator: TA100, Metabolic Activation: NONE, Method: STANDARD PLATE

Compound: Cc1cc(=O)oc2cc(O)ccc12
- mutagenic call (Test System: AMES SALMONELLA TYPHIMURIUM, Strain/Indicator: TA98, Metabolic Activation: HAMSTER, LIVER, S-9, AROCLOR 1254, Method: PREINCUBATION): inactive; negative
- mutagenic call (Test System: AMES SALMONELLA TYPHIMURIUM, Strain/Indicator: TA98, Metabolic Activation: NONE, Method: PREINCUBATION): inactive; negative
- mutagenic call (Test System: AMES SALMONELLA TYPHIMURIUM, Strain/Indicator: TA98, Metabolic Activation: RAT, LIVER, S-9, AROCLOR 1254, Method: PREINCUBATION): inactive; negative
- mutagenic call (Test System: AMES SALMONELLA TYPHIMURIUM, Strain/Indicator: TA100, Metabolic Activation: HAMSTER, LIVER, S-9, AROCLOR 1254, Method: PREINCUBATION): inactive; negative
- mutagenic call (Test System: AMES SALMONELLA TYPHIMURIUM, Strain/Indicator: TA100, Metabolic Activation: NONE, Method: PREINCUBATION): inactive; negative
- mutagenic call [1]: inactive; negative
- mutagenic call (Test System: AMES SALMONELLA TYPHIMURIUM, Strain/Indicator: TA1535, Metabolic Activation: HAMSTER, LIVER, S-9, AROCLOR 1254, Method: PREINCUBATION): inactive; negative
- mutagenic call (Test System: AMES SALMONELLA TYPHIMURIUM, Strain/Indicator: TA1535, Metabolic Activation: NONE, Method: PREINCUBATION): inactive; negative
- mutagenic call [2]: inactive; negative
- mutagenic call (Test System: AMES SALMONELLA TYPHIMURIUM, Strain/Indicator: TA1537, Metabolic Activation: HAMSTER, LIVER, S-9, AROCLOR 1254, Method: PREINCUBATION): inactive; negative
- mutagenic call (Test System: AMES SALMONELLA TYPHIMURIUM, Strain/Indicator: TA1537, Metabolic Activation: NONE, Method: PREINCUBATION): inactive; negative
- mutagenic call (Test System: AMES SALMONELLA TYPHIMURIUM, Strain/Indicator: TA1537, Metabolic Activation: RAT, LIVER, S-9, AROCLOR 1254, Method: PREINCUBATION): inactive; negative

Compound: Nc1ccn([C@@H]2O[C@H](CO)[C@@H](O)C2O)c(=O)n1 (some centres not stated)
- mutagenic call (End Point: IN VITRO MICRONUCLEUS, Test System: CHINESE HAMSTER V79 CELLS, Metabolic Activation: NONE): active; positive
- mutagenic call (End Point: IN VITRO MICRONUCLEUS, Test System: V79 CELLS, Metabolic Activation: NONE): active; positive
- mutagenic call (End Point: In vitro chromosomal aberrations, Test System: Human lymphocytes, Metabolic Activation: None): active; positive (structural changes) (effects significant without chm)
- mutagenic call (End Point: In vitro micronucleus, Test System: Human lymphoblastoid TK6 cells, Metabolic Activation: None): active; positive (p<0.001)
- mutagenic call (Test System: AMES SALMONELLA TYPHIMURIUM, Strain/Indicator: TA98, Metabolic Activation: NONE, Method: STANDARD PLATE): inactive; negative
- mutagenic call (Test System: AMES SALMONELLA TYPHIMURIUM, Strain/Indicator: TA98, Metabolic Activation: S-9, Method: STANDARD PLATE): inactive; negative
- mutagenic call [3]: inactive; negative
- mutagenic call (Test System: AMES SALMONELLA TYPHIMURIUM, Strain/Indicator: TA100, Metabolic Activation: S-9, Method: STANDARD PLATE): inactive; negative
- mutagenic call (Test System: AMES SALMONELLA TYPHIMURIUM, Strain/Indicator: TA102, Metabolic Activation: NONE, Method: STANDARD PLATE): inactive; negative
- mutagenic call (Test System: AMES SALMONELLA TYPHIMURIUM, Strain/Indicator: TA1537, Metabolic Activation: NONE, Method: STANDARD PLATE): inactive; negative
- mutagenic call (Test System: AMES SALMONELLA TYPHIMURIUM, Strain/Indicator: TA1537, Metabolic Activation: S-9, Method: STANDARD PLATE): inactive; negative
- mutagenic call (Test System: CHINESE HAMSTER V-79, Strain/Indicator: V-79 (HGPRT)/6-THIOGUANINE, Metabolic Activation: NONE): inactive; negative
- mutagenic call (Test System: CHINESE HAMSTER V-79, Strain/Indicator: V-79/6-THIOGUANINE, Metabolic Activation: NONE, Method: SUSPENSION/PLATE): active; positive
- mutagenic call (Test System: CHINESE HAMSTER V-79, Strain/Indicator: V-79/6-THIOGUANINE, Metabolic Activation: RAT, LIVER, HEPATOCYTES, Method: SUSPENSION/PLATE): inactive; negative
- mutagenic call (Test System: CHINESE HAMSTER V-79, Strain/Indicator: V-79/8-AZAGUANINE, Metabolic Activation: NONE, Method: STANDARD PLATE): active; positive
- mutagenic call (Test System: E. COLI, Strain/Indicator: WP2 (HCR), Metabolic Activation: NONE, Method: STANDARD PLATE): active; positive
- mutagenic call (Test System: E. COLI, Strain/Indicator: WP2 (HCR), Metabolic Activation: S-9, Method: STANDARD PLATE): active; positive
- mutagenic call (Test System: MOUSE LYMPHOMA, Strain/Indicator: L5178Y (TK+/TK-), Metabolic Activation: NONE, Method: MICROWELL): active; positive
- mutagenic call (Test System: MOUSE LYMPHOMA, Strain/Indicator: L5178Y (TK+/TK-), Metabolic Activation: NONE, Method: SUSPENSION/PLATE): active; positive
- mutagenic call (Test System: MOUSE LYMPHOMA, Strain/Indicator: L5178Y (TK+/TK-), Metabolic Activation: S-9, Method: MICROWELL): active; positive

Compound: CCCN(CCC)N=O
- mutagenic call (Test System: AMES SALMONELLA TYPHIMURIUM, Strain/Indicator: TA100, Metabolic Activation: HAMSTER, LIVER, S-9, Method: PREINCUBATION): active; positive
- mutagenic call (Test System: AMES SALMONELLA TYPHIMURIUM, Strain/Indicator: TA100, Metabolic Activation: HUMAN, LIVER, S-9, Method: PREINCUBATION): inactive; negative
- mutagenic call (Test System: AMES SALMONELLA TYPHIMURIUM, Strain/Indicator: TA100, Metabolic Activation: MOUSE, INTACT UROTHELIAL CELLS, Method: FLUCTUATION TEST): active; positive
- mutagenic call [3]: inactive; negative
- mutagenic call (Test System: AMES SALMONELLA TYPHIMURIUM, Strain/Indicator: TA100, Metabolic Activation: PIG, LIVER, S-9, Method: PREINCUBATION): inactive; negative
- mutagenic call (Test System: AMES SALMONELLA TYPHIMURIUM, Strain/Indicator: TA100, Metabolic Activation: RABBIT, LIVER, S-9, Method: STANDARD PLATE): inactive; negative
- mutagenic call (Test System: AMES SALMONELLA TYPHIMURIUM, Strain/Indicator: TA100, Metabolic Activation: RABBIT, LUNG, S-9, Method: STANDARD PLATE): inactive; negative
- mutagenic call (Test System: AMES SALMONELLA TYPHIMURIUM, Strain/Indicator: TA100, Metabolic Activation: RABBIT, NASAL, S-9, Method: STANDARD PLATE): inactive; negative
- mutagenic call (Test System: AMES SALMONELLA TYPHIMURIUM, Strain/Indicator: TA100, Metabolic Activation: RAT, INTACT UROTHELIAL CELLS, Method: FLUCTUATION TEST): active; positive
- mutagenic call [1]: active; positive
- mutagenic call (Test System: AMES SALMONELLA TYPHIMURIUM, Strain/Indicator: TA100, Metabolic Activation: RAT, LIVER, S-9, KC500 OR PHENOBARBITAL, Method: LIQUID SUSPENSION): active; positive
- mutagenic call (Test System: AMES SALMONELLA TYPHIMURIUM, Strain/Indicator: TA100, Metabolic Activation: RAT, LIVER, S-9, Method: PREINCUBATION): inactive; negative
- mutagenic call (Test System: AMES SALMONELLA TYPHIMURIUM, Strain/Indicator: TA100, Metabolic Activation: RAT, LIVER, S-9, Method: STANDARD PLATE): inactive; negative
- mutagenic call (Test System: AMES SALMONELLA TYPHIMURIUM, Strain/Indicator: TA100, Metabolic Activation: RAT, LUNG, S-9, Method: STANDARD PLATE): inactive; negative
- mutagenic call (Test System: AMES SALMONELLA TYPHIMURIUM, Strain/Indicator: TA100, Metabolic Activation: RAT, NASAL, S-9, Method: STANDARD PLATE): active; positive
- mutagenic call (Test System: AMES SALMONELLA TYPHIMURIUM, Strain/Indicator: TA102, Metabolic Activation: RAT, LIVER, S-9, AROCLOR 1254, Method: PREINCUBATION): active; positive
- mutagenic call (Test System: AMES SALMONELLA TYPHIMURIUM, Strain/Indicator: TA104, Metabolic Activation: RAT, LIVER, S-9, AROCLOR 1254, Method: PREINCUBATION): active; positive
- mutagenic call (Test System: AMES SALMONELLA TYPHIMURIUM, Strain/Indicator: TA1530, Metabolic Activation: RAT, LIVER, S-9, Method: STANDARD PLATE): active; positive
- mutagenic call [2]: active; positive
- mutagenic call (Test System: AMES SALMONELLA TYPHIMURIUM, Strain/Indicator: TA1535ER, Metabolic Activation: NONE, Method: STANDARD PLATE): inactive; negative
- mutagenic call (Test System: AMES SALMONELLA TYPHIMURIUM, Strain/Indicator: TA1975, Metabolic Activation: RAT, LIVER, S-9, AROCLOR 1254, Method: PREINCUBATION): active; positive
- mutagenic call (Test System: AMES SALMONELLA TYPHIMURIUM, Strain/Indicator: YG7104ER, Metabolic Activation: NONE, Method: STANDARD PLATE): active; positive
- mutagenic call (Test System: AMES SALMONELLA TYPHIMURIUM, Strain/Indicator: YG7108ER, Metabolic Activation: NONE, Method: STANDARD PLATE): active; positive
- mutagenic call (Test System: CHINESE HAMSTER V-79, Strain/Indicator: V-79/8-AZAGUANINE, Metabolic Activation: RAT, LIVER, S-15, PHENOBARBITAL, Method: STANDARD PLATE): active; positive
- mutagenic call (Test System: CHINESE HAMSTER V-79, Strain/Indicator: V-79/OUABAIN, Metabolic Activation: HAMSTER, HEPATOCYTES, Method: CELL-MEDIATED): active; positive
